Experimental data taken from the supplement of paper PMC10307832.

What was measured:
Assay in all cases: relative viability (nuclei count vs DMSO), 5 days (fraction); higher = more cells survive
Fedratinib + Foretinib = compound: Cc1cnc(Nc2ccc(OCCN3CCCC3)cc2)nc1Nc1cccc(S(=O)(=O)NC(C)(C)C)c1 [Fedratinib] + COc1cc2c(Oc3ccc(NC(=O)C4(C(=O)Nc5ccc(F)cc5)CC4)cc3F)ccnc2cc1OCCCN1CCOCC1 [Foretinib] (partner 0.25 µM)
Method in brief: (§1)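 One day after seeding in 1536-well plates, lung cancer cell lines were dosed by pin tool. Dosing was either single-drug or a fixed anchor-drug dose plus five library-drug doses (not always all listed) in √10 steps. After 5 days, nuclei were stained in one fix-and-stain step and counted on 4× images, and relative viability is the nuclei count of treated wells over that of vehicle wells, given as the median of duplicate plates.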

GW-2580 + Trametinib = compound: COC1=CC=C(C=C1)COC2=C(C=C(C=C2)CC3=CN=C(N=C3N)N)OC [GW-2580] + CC(=O)Nc1cccc(-n2c(=O)n(C3CC3)c(=O)c3c(Nc4ccc(I)cc4F)n(C)c(=O)c(C)c32)c1 [Trametinib] (partner 0.02 µM)
Method in brief: as §1

GW-2580 + Alpelisib = compound: COC1=CC=C(C=C1)COC2=C(C=C(C=C2)CC3=CN=C(N=C3N)N)OC [GW-2580] + Cc1nc(NC(=O)N2CCC[C@H]2C(N)=O)sc1-c1ccnc(C(C)(C)C(F)(F)F)c1 [Alpelisib] (partner 2 µM)
Method in brief: as §1

Fedratinib + Phenformin = compound: Cc1cnc(Nc2ccc(OCCN3CCCC3)cc2)nc1Nc1cccc(S(=O)(=O)NC(C)(C)C)c1 [Fedratinib] + N=C(N)NC(=N)NCCc1ccccc1 [Phenformin] (partner 250 µM)
Method in brief: as §1

GW-2580 + Dasatinib = compound: COC1=CC=C(C=C1)COC2=C(C=C(C=C2)CC3=CN=C(N=C3N)N)OC [GW-2580] + Cc1nc(Nc2ncc(C(=O)Nc3c(C)cccc3Cl)s2)cc(N2CCN(CCO)CC2)n1 [Dasatinib] (partner 0.075 µM)
Method in brief: as §1

| Cell Line | relative viability (Fedratinib + Foretinib; first compound 0.1 µM) | relative viability (Fedratinib + Foretinib; first compound 0.3162 µM) | relative viability (Fedratinib + Foretinib; first compound 1 µM) | relative viability (GW-2580 + Trametinib; first compound 0.08 µM) | relative viability (GW-2580 + Trametinib; first compound 0.8 µM) | relative viability (GW-2580 + Trametinib; first compound 2.53 µM) | relative viability (GW-2580 + Trametinib; first compound 8 µM) | relative viability (GW-2580 + Alpelisib; first compound 0.08 µM) | relative viability (GW-2580 + Alpelisib; first compound 0.8 µM) | relative viability (GW-2580 + Alpelisib; first compound 2.53 µM) | relative viability (GW-2580 + Alpelisib; first compound 8 µM) | relative viability (Fedratinib + Phenformin; first compound 0.1 µM) | relative viability (Fedratinib + Phenformin; first compound 0.3162 µM) | relative viability (Fedratinib + Phenformin; first compound 1 µM) | relative viability (GW-2580 + Dasatinib; first compound 0.08 µM) | relative viability (GW-2580 + Dasatinib; first compound 0.8 µM) | relative viability (GW-2580 + Dasatinib; first compound 2.53 µM) | relative viability (GW-2580 + Dasatinib; first compound 8 µM) |
| --- | --- | --- | --- | --- | --- | --- | --- | --- | --- | --- | --- | --- | --- | --- | --- | --- | --- | --- |
| HCC-827 | 1.03 | 1.07 | 0.96 | 0.555 | 0.552 | 0.483 | 0.568 | 1.15 | 0.923 | 0.902 | 0.915 | 0.388 | 0.42 | 0.464 | 0.309 | 0.413 | 0.283 | 0.245 |
| HOP-62 | 1.1 | 0.982 | 0.959 | 0.406 | 0.412 | 0.359 | 0.378 | 0.914 | 1.01 | 0.694 | 1.07 | 0.682 | 0.601 | 0.631 | 0.756 | 0.728 | 0.639 | 0.697 |
| IA-LM | 1.15 | 1.23 | 1.12 |  |  |  |  | 1.11 | 0.725 | 0.656 | 0.883 |  |  |  |  |  |  |  |
| LC-2-ad | 1.02 | 1.01 | 0.784 | 0.883 | 0.995 | 0.923 | 0.816 | 0.934 | 0.932 | 0.875 | 0.87 | 0.595 | 0.624 | 0.528 | 0.715 | 0.771 | 0.737 | 0.55 |
| LCLC-97TM1 | 1.03 | 0.913 | 0.935 | 0.189 | 0.196 | 0.192 | 0.196 | 0.233 |  | 0.189 | 0.226 | 0.477 | 0.425 | 0.37 | 0.891 | 0.866 | 0.899 | 0.821 |
| LCLC-103H | 0.644 | 0.797 | 0.608 | 0.725 | 0.716 | 0.64 | 0.637 | 0.928 | 1.11 | 0.961 | 0.954 | 0.32 | 0.284 | 0.363 | 0.451 | 0.496 | 0.511 | 0.484 |
| LK-2 | 1.1 | 1.14 | 1.14 | 0.918 | 0.933 | 0.686 | 0.904 | 1.21 | 1.21 | 0.849 | 1.38 | 0.293 | 0.452 | 0.201 | 0.288 | 0.281 | 0.282 | 0.295 |
| LOU-NH91 | 0.917 | 0.956 | 0.875 | 0.796 | 0.857 | 0.738 | 0.827 | 0.677 | 0.756 | 0.635 | 0.688 | 0.689 | 0.899 | 0.733 | 0.555 | 0.719 | 0.517 | 0.553 |
| LU99A | 0.717 | 0.858 | 0.644 | 0.668 | 0.646 | 0.499 | 0.462 | 0.496 | 0.522 | 0.354 | 0.528 | 0.864 | 0.894 | 0.755 | 0.609 | 0.651 | 0.472 | 0.465 |
| LXF-289 | 0.963 | 0.958 | 0.981 | 0.724 | 0.708 | 0.688 | 0.651 | 1.07 | 1.09 | 0.998 | 0.907 | 0.503 | 0.488 | 0.517 | 0.208 | 0.267 | 0.177 | 0.217 |
| NCI-H23 | 0.945 | 0.767 | 0.822 | 0.398 | 0.371 | 0.404 | 0.395 | 0.76 | 0.735 | 0.512 | 0.749 | 0.772 | 0.81 | 0.716 | 0.847 | 0.921 | 0.757 | 0.792 |
| NCI-H322M | 0.946 | 0.95 | 0.596 | 0.466 | 0.485 | 0.428 | 0.59 | 0.833 | 0.912 | 0.855 | 0.795 | 0.722 | 0.774 | 0.436 | 0.247 | 0.24 | 0.263 | 0.253 |
| NCI-H522 |  |  |  | 0.804 | 0.673 | 0.656 | 0.753 |  |  |  |  | 0.588 | 0.585 | 0.661 | 0.95 | 0.787 | 0.795 | 1.02 |
| NCI-H1299 | 1.06 | 1.09 | 1.07 |  |  |  |  | 1.2 | 1.04 | 1.04 | 1.07 |  |  |  |  |  |  |  |
| NCI-H1563 | 0.894 | 0.927 | 0.874 |  |  |  |  | 0.989 | 1.05 | 0.853 | 0.869 | 0.658 | 0.693 | 0.637 | 0.473 | 0.534 | 0.458 | 0.447 |
| NCI-H1623 | 0.839 | 0.876 | 0.817 |  |  |  |  |  |  |  |  | 0.474 | 0.59 | 0.551 | 0.46 | 0.645 | 0.447 | 0.583 |
| NCI-H1648 |  |  |  | 0.416 |  | 0.405 | 0.439 |  |  |  |  |  |  |  |  |  |  |  |
| NCI-H1650 |  | 1.1 | 0.885 | 0.623 | 0.533 | 0.579 | 0.599 |  |  |  |  |  | 0.495 | 0.234 | 0.339 | 0.399 | 0.326 | 0.296 |
| NCI-H1703 | 0.317 | 0.296 | 0.324 |  |  |  |  | 0.308 | 0.334 | 0.323 | 0.331 |  |  |  |  |  |  |  |
| NCI-H1792 |  |  |  | 0.49 | 0.502 | 0.388 | 0.337 | 0.552 | 0.809 | 0.288 | 0.907 |  | 0.77 | 0.338 | 1.48 | 0.82 |  | 1.01 |
| NCI-H2342 | 1.05 | 1.07 | 0.989 | 0.805 | 0.889 | 0.783 | 0.83 |  |  |  |  | 0.674 | 0.537 | 0.634 | 0.329 | 0.327 | 0.297 | 0.332 |
| SW 900 | 0.868 | 1.05 | 0.804 | 0.711 | 0.785 | 0.759 | 0.896 |  |  |  |  | 0.445 | 0.672 | 0.327 | 0.787 | 0.505 | 0.802 | 0.585 |
